Assay results published in patent US8962596B2 (Array BioPharma Inc., priority 2010, dated 2015).

Tests used:
Type in all cases: biochemical
Human Tyk2 kinase domain = biological target: T1, Human Tyk2 kinase domain (Homo sapiens, UniProt P29597); experiment: Tyk2 Inhibition Assay (Omnia kinase fluorescence peptide substrate assay); settings: averaged IC50 ranges; assay of Example A; 10 μM (Km app) or 1 mM ATP, 2 nM Tyk2
T1 construct: comprising amino acids 886 to 1187 with 10 additional histidine residues; 10xHis (histidine tag) (C, cleaved yes); made in house
T1 sequence (P29597 886-1187): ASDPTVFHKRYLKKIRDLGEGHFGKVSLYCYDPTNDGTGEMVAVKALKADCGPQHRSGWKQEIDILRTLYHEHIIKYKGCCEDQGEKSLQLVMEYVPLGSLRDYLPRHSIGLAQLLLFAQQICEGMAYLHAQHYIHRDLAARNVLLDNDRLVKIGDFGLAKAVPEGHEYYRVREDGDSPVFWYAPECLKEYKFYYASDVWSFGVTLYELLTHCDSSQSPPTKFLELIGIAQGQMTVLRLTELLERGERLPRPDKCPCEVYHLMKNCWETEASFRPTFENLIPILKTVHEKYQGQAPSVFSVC
Excerpt: (§1) The assays described in Examples A, B, C and D for the determination of Tyk2, JAK1, JAK2 and JAK3 kinase activity, respectively, utilized the Omnia® Kinase fluorescence peptide substrate-based technology (Invitrogen). The specific components of the assay mixture are described in Examples A, B, C and D. In these assays, Mg^2+ is chelated upon phosphorylation of the Omnia peptide by the kinase to form a bridge between the chelation-enhanced fluorophore Sox and the phosphate, resulting in an increase in fluorescence emission at 485 nm when excited at […]. The reactions were therefore read at excitation 360 nm and emission was measured at 485 nm every 50 seconds for 45 minutes using a PerkinElmer EnVision Multilabel Plate Reader.
(§2) The final buffer conditions for Tyk2, JAK1, JAK2, and JAK3 assays were as follows: 25 mM HEPES, pH 7.4, 10 mM MgCl2, 0.01% Triton X-100 and 1 mM DTT.
(§3) Compounds were prepared at 50× the final concentration in DMSO by conducting 3-fold serial dilutions from a 500-μM intermediate dilution to give a 10-point dosing curve having a high dose of 10 μM. Two-μL aliquots of these were transferred to a fresh plate for a ten-fold intermediate dilution with assay buffer. Five-μL aliquots of the diluted compounds were then transferred to 20-μL of assay mixtures described in Examples A, B, C and D for a final concentration of DMSO of 2%. A standard or reference compound was typically included on each assay plate to validate that plate. For each plate, percent of control (POC) values were calculated for each well according to the following equation:
(§4) where Xmax=Average Uninhibited Controls • Xmin=Average Background IC50's were estimated from the POC's using a standard 4-parameter logistic model:
(§5) where • A=Minimum Y (Bottom Asymptote) • B=Maximum Y (Top Asymptote) • C=EC50 • D=Slope Factor • X=Compound Concentration (nM) • Y=POC
(§6) The IC50 is defined as the concentration of inhibitor at which the POC equals 50 for the fitted curve.
Compounds of Formula I were screened for their ability to inhibit Tyk2 using the general enzyme inhibition assay method, in which the assay mixture contained 10 μM (Km app) or 1 mM ATP, 8 μM Omnia® Y12 peptide (Catalog #IVGN KPZ3121C; Invitrogen Corporation, Carlsbad, Calif.) and 2 nM Tyk2 in a total volume of 20 μL. Human Tyk2 kinase domain, comprising amino acids 886 to 1187 with 10 additional histidine residues (histidine tag) on the carboxy terminus, was expressed and purified from bacculovirus in-house at Array BioPharma Inc. (Boulder, Colo.). The histidine tag was cleaved after purification using standard conditions.

JAK1 = biological target: T2, JAK1 (Homo sapiens, UniProt P23458); experiment: JAK1 Inhibition Assay (Omnia kinase fluorescence peptide substrate assay); settings: averaged IC50 ranges; assay of Example B; 40 μM (Km app) or 1 mM ATP, 15 nM JAK1
T2 construct: purchased Invitrogen Corporation, Carlsbad, Calif; PV4775
Excerpt: as §1, §2, §3, §4, §5, §6
Compounds of Formula I were screened for their ability to inhibit JAK1 using the general enzyme inhibition assay method, in which the assay mixture contained 40 μM (Km app) or 1 mM ATP, 8 μM Omnia® Y12 peptide (Catalog #IVGN KPZ3121C; Invitrogen Corporation, Carlsbad, Calif.) and 15 nM JAK1 in a total volume of 20 μL. JAK1 was purchased from Invitrogen Corporation, Carlsbad, Calif. (catalog #IVGN PV4775).

JAK2 = biological target: T3, JAK2 (Homo sapiens, UniProt O60674); experiment: JAK2 Inhibition Assay (Omnia kinase fluorescence peptide substrate assay); settings: averaged IC50 ranges; assay of Example C; 25 μM (Km app) or 1 mM ATP, 5 nM JAK2
T3 construct: purchased Invitrogen Corporation, Carlsbad, Calif; PV4288
Excerpt: as §1, §2, §3, §4, §5, §6
(§7) Compounds of Formula I were screened for their ability to inhibit JAK2 using the general enzyme inhibition assay method, in which the assay mixture contained 25 μM (Km app) or 1 mM ATP, 10 μM Omnia® Y7 peptide (Catalog #IVGN KNZ3071C, Invitrogen Corporation, Carlsbad, Calif.) and 5 nM JAK2 in a total volume of 20 μL. JAK2 was purchased from Invitrogen Corporation, Carlsbad, Calif. (catalog #IVGN PV4288).

JAK3 = biological target: T4, JAK3 (Homo sapiens, UniProt P52333); experiment: JAK3 Inhibition Assay (Omnia kinase fluorescence peptide substrate assay); settings: averaged IC50 ranges; assay of Example D; 10 μM (Km app) or 1 mM ATP, 2.5 nM JAK3
T4 construct: purchased Invitrogen Corporation, Carlsbad, Calif; PV4080
T4 sequence (P52333 1-1124): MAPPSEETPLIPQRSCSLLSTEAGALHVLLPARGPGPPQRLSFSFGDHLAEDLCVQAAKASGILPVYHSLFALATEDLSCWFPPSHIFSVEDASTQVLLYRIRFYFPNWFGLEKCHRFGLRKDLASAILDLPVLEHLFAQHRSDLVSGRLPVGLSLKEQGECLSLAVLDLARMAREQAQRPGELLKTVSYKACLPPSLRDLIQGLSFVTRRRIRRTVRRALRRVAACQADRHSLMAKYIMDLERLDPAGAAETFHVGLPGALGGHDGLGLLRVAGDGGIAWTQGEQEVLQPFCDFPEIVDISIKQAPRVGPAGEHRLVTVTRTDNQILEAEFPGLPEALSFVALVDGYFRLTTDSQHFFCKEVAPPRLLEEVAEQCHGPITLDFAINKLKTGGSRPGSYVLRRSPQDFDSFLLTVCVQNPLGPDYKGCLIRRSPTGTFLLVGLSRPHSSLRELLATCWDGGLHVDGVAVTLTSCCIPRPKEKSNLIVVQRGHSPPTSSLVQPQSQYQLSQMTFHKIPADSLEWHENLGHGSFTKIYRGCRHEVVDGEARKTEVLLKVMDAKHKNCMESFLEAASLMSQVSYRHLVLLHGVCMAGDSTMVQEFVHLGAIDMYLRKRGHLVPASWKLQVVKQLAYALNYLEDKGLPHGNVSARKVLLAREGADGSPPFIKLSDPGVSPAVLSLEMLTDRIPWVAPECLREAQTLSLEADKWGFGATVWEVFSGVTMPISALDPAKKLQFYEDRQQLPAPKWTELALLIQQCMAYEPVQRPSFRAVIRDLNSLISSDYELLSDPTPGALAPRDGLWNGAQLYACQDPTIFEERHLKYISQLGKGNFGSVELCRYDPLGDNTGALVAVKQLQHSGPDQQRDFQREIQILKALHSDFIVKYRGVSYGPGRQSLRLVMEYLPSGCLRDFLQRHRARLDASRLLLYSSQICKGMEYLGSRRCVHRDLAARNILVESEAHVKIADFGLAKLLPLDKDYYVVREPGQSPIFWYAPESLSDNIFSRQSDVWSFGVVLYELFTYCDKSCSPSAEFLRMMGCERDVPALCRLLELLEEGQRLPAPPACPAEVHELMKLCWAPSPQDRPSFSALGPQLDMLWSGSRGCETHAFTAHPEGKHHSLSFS
Excerpt: as §1, §2, §3, §4, §5, §6
as §7, with “JAK3” for “JAK2”, “10” for “25”, “2.5” for “5”, “PV4080).” for “PV4288).”

T2 sequence (P23458 whole entry): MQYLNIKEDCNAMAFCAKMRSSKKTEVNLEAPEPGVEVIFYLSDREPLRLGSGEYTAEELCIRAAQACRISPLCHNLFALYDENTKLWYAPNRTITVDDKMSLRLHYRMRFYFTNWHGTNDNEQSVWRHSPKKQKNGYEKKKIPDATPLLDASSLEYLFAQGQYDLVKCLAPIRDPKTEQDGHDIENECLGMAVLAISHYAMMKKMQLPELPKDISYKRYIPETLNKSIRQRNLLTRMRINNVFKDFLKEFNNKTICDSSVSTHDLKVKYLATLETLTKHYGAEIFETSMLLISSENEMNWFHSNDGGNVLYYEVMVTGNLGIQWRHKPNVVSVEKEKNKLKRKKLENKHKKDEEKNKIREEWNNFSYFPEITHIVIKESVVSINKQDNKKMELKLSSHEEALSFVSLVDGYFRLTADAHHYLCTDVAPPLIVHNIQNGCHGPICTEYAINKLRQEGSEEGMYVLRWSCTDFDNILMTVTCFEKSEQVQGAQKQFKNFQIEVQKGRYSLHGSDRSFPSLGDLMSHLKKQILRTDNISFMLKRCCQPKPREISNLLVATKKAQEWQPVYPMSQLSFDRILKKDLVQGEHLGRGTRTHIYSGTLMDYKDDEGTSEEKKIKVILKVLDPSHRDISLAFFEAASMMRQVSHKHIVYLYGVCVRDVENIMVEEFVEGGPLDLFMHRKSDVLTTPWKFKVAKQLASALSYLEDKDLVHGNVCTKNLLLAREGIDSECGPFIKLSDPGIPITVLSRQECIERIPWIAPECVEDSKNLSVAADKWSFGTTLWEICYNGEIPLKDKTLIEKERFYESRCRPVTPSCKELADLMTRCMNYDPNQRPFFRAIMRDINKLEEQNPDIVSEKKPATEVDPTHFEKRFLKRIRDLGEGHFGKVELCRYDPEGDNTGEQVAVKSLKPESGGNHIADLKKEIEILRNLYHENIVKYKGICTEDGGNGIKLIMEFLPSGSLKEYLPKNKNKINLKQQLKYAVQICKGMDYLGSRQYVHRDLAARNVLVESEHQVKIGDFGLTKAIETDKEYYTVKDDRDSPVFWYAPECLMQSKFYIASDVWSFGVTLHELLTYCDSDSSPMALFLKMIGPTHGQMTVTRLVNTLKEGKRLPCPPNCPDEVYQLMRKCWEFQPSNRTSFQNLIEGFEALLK
T3 sequence (O60674 whole entry): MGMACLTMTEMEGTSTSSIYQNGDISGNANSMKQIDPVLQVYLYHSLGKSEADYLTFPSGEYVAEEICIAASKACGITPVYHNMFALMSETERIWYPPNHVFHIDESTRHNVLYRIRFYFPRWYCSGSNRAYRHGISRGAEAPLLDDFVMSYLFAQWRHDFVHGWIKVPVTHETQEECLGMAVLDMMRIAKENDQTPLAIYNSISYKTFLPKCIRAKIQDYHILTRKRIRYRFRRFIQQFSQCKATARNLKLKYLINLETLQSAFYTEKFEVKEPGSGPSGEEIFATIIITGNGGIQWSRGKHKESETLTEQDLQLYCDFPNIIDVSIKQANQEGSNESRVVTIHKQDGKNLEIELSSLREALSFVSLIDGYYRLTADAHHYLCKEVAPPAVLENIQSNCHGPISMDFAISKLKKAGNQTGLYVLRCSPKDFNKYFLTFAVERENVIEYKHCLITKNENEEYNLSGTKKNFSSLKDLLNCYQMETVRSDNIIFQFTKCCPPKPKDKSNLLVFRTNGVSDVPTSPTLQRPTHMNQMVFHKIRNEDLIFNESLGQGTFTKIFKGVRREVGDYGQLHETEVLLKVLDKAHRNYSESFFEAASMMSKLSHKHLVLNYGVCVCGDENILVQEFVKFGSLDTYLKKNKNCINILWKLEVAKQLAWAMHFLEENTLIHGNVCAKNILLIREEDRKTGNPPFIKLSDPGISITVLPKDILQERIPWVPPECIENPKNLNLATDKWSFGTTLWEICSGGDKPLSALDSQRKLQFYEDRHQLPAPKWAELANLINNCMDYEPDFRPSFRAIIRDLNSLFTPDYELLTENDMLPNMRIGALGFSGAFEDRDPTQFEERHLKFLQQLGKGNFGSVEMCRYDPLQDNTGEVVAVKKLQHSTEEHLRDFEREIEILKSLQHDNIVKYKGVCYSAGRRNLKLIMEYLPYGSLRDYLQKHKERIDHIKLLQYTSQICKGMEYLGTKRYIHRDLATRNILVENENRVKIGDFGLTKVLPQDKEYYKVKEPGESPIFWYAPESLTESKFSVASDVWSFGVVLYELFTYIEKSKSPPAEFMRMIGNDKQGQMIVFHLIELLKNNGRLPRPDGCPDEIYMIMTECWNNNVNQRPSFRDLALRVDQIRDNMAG

Row | SMILES | IC50 (Human Tyk2 kinase domain) | IC50 (JAK1) | IC50 (JAK2) | IC50 (JAK3)
1 | Cn1cc(-c2cc3nccn3c(-c3cnn(C4(CC#N)CN(C(=O)CC(F)(F)F)C4)c3)n2)cn1 [Example 64, 2-(3-(4-(7-(1-Methyl-1H-pyrazol-4-yl)imidazo[1,2-c]pyrimidin-5-yl)-1H-pyrazol-1-yl)-1-(3,3,3-trifluoropropanoyl)azetidin-3-yl)acetonitrile] | 10 to 100 nM | 100 to 1000 nM | 10 to 100 nM | 100 to 1000 nM
2 | N#CCC(C1CC1)n1cc(-c2nc(-c3cnn(C4COC4)c3)cc3nccn23)cn1 (stereo not drawn) [Example 38, 3-Cyclopropyl-3-(4-(7-(1-(oxetan-3-yl)-1H-pyrazol-4-yl)imidazo[1,2-c]pyrimidin-5-yl)-1H-pyrazol-1-yl)propanenitrile] | < 10 nM | 100 to 1000 nM | 10 to 100 nM | 100 to 1000 nM
3 | Cn1cc(-c2cc3ncc(Cl)n3c(-c3cnn(C4(CC#N)CN(S(=O)(=O)C(F)(F)F)C4)c3)n2)cn1 [Example 155, 2-(3-(4-(3-chloro-7-(1-methyl-1H-pyrazol-4-yl)imidazo[1,2-c]pyrimidin-5-yl)-1H-pyrazol-1-yl)-1-((trifluoromethyl)sulfonyl)azetidin-3-yl)acetonitrile] | < 10 nM | 10 to 100 nM | 10 to 100 nM | 100 to 1000 nM
4 | CCN1CCC(CC#N)(n2cc(-c3nc(-c4cnn(C)c4)cc4nccn34)cn2)CC1 [Example 29, 2-(1-ethyl-4-(4-(7-(1-methyl-1H-pyrazol-4-yl)imidazo[1,2-c]pyrimidin-5-yl)-1H-pyrazol-1-yl)piperidin-4-yl)acetonitrile] | 100 to 1000 nM | > 1000 nM | > 1000 nM | > 1000 nM
5 | Cn1cc(-c2cc3nccn3c(-c3cnn(C(CC#N)C4CCCC4)c3)n2)cn1 (stereo not drawn) [Example 17, 3-cyclopentyl-3-(4-(7-(1-methyl-1H-pyrazol-4-yl)imidazo[1,2-c]pyrimidin-5-yl)-1H-pyrazol-1-yl)propanenitrile] | < 10 nM | 10 to 100 nM | 10 to 100 nM | > 1000 nM
6 | Cn1cc(-c2cc3nccn3c(-c3cnn(C(CC#N)c4ccncc4)c3)n2)cn1 (stereo not drawn) [Example 8, 3-(4-(7-(1-methyl-1H-pyrazol-4-yl)imidazo[1,2-c]pyrimidin-5-yl)-1H-pyrazol-1-yl)-3-(pyridin-4-yl)propanenitrile] | 10 to 100 nM | 100 to 1000 nM | 10 to 100 nM | > 1000 nM
7 | N#CCC1(n2cc(-c3nc(-c4cnn(C5COC5)c4)cc4nccn34)cn2)CN(CC(F)F)C1 [Example 156, 2-(1-(2,2-difluoroethyl)-3-(4-(7-(1-(oxetan-3-yl)-1H-pyrazol-4-yl)imidazo[1,2-c]pyrimidin-5-yl)-1H-pyrazol-1-yl)azetidin-3-yl)acetonitrile] | < 10 nM | 100 to 1000 nM | 10 to 100 nM | > 1000 nM
8 | Cn1cc(-c2cc3nccn3c(-c3cnn(C4(CC#N)CCN(S(=O)(=O)C(F)(F)F)C4)c3)n2)cn1 (stereo not drawn) [Example 133, 2-(3-(4-(7-(1-methyl-1H-pyrazol-4-yl)imidazo[1,2-c]pyrimidin-5-yl)-1H-pyrazol-1-yl)-1-(trifluoromethylsulfonyl)pyrrolidin-3-yl)acetonitrile] | < 10 nM | 10 to 100 nM | 10 to 100 nM | 100 to 1000 nM
9 | CN1CCN(c2ccc(-c3cc4nccn4c(-c4cnn(C(CC#N)C5CC5)c4)n3)cc2)CC1 (stereo not drawn) [Example 59, 3-Cyclopropyl-3-(4-(7-(4-(4-methylpiperazin-1-yl)phenyl)imidazo[1,2-c]pyrimidin-5-yl)-1H-pyrazol-1-yl)propanenitrile] | < 10 nM | 10 to 100 nM | 10 to 100 nM | 100 to 1000 nM
10 | Cn1cc(-c2cc3nccn3c(-c3cnn(C4(CC#N)CN(CC(F)(F)F)C4)c3)n2)cn1 [Example 71, 2-(3-(4-(7-(1-methyl-1H-pyrazol-4-yl)imidazo[1,2-c]pyrimidin-5-yl)-1H-pyrazol-1-yl)-1-(2,2,2-trifluoroethyl)azetidin-3-yl)acetonitrile] | < 10 nM | 100 to 1000 nM | 10 to 100 nM | > 1000 nM
11 | Cc1ncc(-c2cc3nccn3c(-c3cnn(C(CC#N)C4CC4)c3)n2)s1 (stereo not drawn) [Example 48] | 10 to 100 nM | 100 to 1000 nM | 10 to 100 nM | 100 to 1000 nM
12 | CC(=O)N1CC(CC#N)(n2cc(-c3nc(-c4cnn(C)c4)cc4nccn34)cn2)C1 [Example 63, 2-(1-Acetyl-3-(4-(7-(1-methyl-1H-pyrazol-4-yl)imidazo[1,2-c]pyrimidin-5-yl)-1H-pyrazol-1-yl)azetidin-3-yl)acetonitrile] | 100 to 1000 nM | > 1000 nM | > 1000 nM | > 1000 nM
